Eight compounds from ChEMBL document CHEMBL1123385, “Stereoselectivity of a potent calcium antagonist, 1-benzyl-3-pyrrolidinyl methyl 2,6-dimethyl-4-(m-nitrophenyl)-1,4-dihydropyridine-3,5-dicarboxylate” (J Med Chem, 1986) can be followed below.

The species named for one data set is Rattus norvegicus. Briefly: Hill coefficient of the compound. The note with it: in vitro.
The target in data set [1] is Voltage-gated L-type calcium channel (Rattus norvegicus, UniProt P22002+Q02485+P27732). Briefly: Inhibition of [3H]nitrendipine binding to L-type calcium channel from rat brain cortex homogenate.
The subject of another data set is Canis familiaris. Briefly: The compound was tested for coronary vasodilating activity in anesthetized coronary perfused dogs. The format is functional, Canis lupus familiaris.

Take `COC(=O)C1=C(C)NC(C)=C(C(=O)OCCN(C)Cc2ccccc2)C1c1cccc([N+](=O)[O-])c1` (racemic) [NICARDIPINE]: in the data set listed under Rattus norvegicus, the Hill coefficient was 1.054. In data set [1], the Ki is on record as 0.84 nM l-1.
Taken in the same sequence, the figures for `COC(=O)C1=C(C)NC(C)=C(C(=O)OCCN(C)Cc2ccccc2)[C@H]1c1cccc([N+](=O)[O-])c1` were 1.286 and 0.499 nM l-1.
Consider `CO/C(O)=C1\C(C)=NC(C)=C(C(=O)O[C@H]2CCN(Cc3ccccc3)C2)[C@@H]1c1cccc([N+](=O)[O-])c1.Cl` (racemic), for which the Hill coefficient in the data set listed under Rattus norvegicus came out at 0.957. Also, the Ki in data set [1] turned out to be 49.6 nM l-1. Besides, the ED100 with Canis familiaris came out at 9.1 µg.
The compound `COC(=O)C1=C(C)NC(C)=C(C(=O)OCCN(C)Cc2ccccc2)[C@@H]1c1cccc([N+](=O)[O-])c1` showed a Hill coefficient in the data set filed under Rattus norvegicus of 1.241. In addition, the Ki in data set [1] is 7.11 nM l-1.
Turning to `CO/C(O)=C1\C(C)=NC(C)=C(C(=O)O[C@@H]2CCN(Cc3ccccc3)C2)[C@@H]1c1cccc([N+](=O)[O-])c1.Cl`, the Hill coefficient in the data set filed under Rattus norvegicus was 1.143. In data set [1], the Ki came out at 14.3 nM l-1. For the same compound, the ED100 with Canis familiaris worked out at 3.1 µg.
Take `COC(=O)C1=C(C)NC(C)=C(C(=O)OC)C1c1ccccc1[N+](=O)[O-]` [NIFEDIPINE]: the Hill coefficient in the data set filed under Rattus norvegicus came out at 1.105.
In the data set listed under Rattus norvegicus, `CO/C(O)=C1\C(C)=NC(C)=C(C(=O)O[C@@H]2CCN(Cc3ccccc3)C2)[C@H]1c1cccc([N+](=O)[O-])c1.Cl` displayed a Hill coefficient of 0.752. The Ki in data set [1] was 3.09 nM l-1. In the data set on Canis familiaris, this compound returned an ED100 of 1.6 µg.
On to `CO/C(O)=C1\C(C)=NC(C)=C(C(=O)O[C@H]2CCN(Cc3ccccc3)C2)[C@H]1c1cccc([N+](=O)[O-])c1.Cl`, for which the Hill coefficient in the data set filed under Rattus norvegicus is listed as 1.203. In addition, the Ki in data set [1] turned out to be 0.205 nM l-1. For the same compound, in the data set with Canis familiaris, the ED100 came to 0.57 µg.

Broadly, the Hill coefficient is the slope factor of the fitted curve.
